One series has as its system Human alphaherpesvirus 1. Briefly: Antiviral activity against Herpes simplex virus 1 strain F VR-733 infected in African green monkey Vero cells after 3 days by MTT assay. The format is functional, organism-based. Particulars: Human alphaherpesvirus 1, Strain F ATCC VR 733, Vero, 72 h. Background: Tetrazolium dyes change colour on reduction, which living cells bring about.

The next series concerns Human alphaherpesvirus 2. Briefly: Antiviral activity against Herpes simplex virus 2 strain MS VR-540 infected in African green monkey Vero cells after 3 days by MTT assay. The format is functional, organism-based. To be noted: Human alphaherpesvirus 2, MS VR-540, Vero, 72 h.
The next series deals with Human alphaherpesvirus 3. In words: Antiviral activity against Varicella-zoster virus Ellen VR-1367 infected in African green monkey Vero cells after 3 days by MTT assay. The format is functional, organism-based. To be noted: Human alphaherpesvirus 3, Ellen VR-1367, Vero, 72 h.
Another series concerns Human betaherpesvirus 5. Briefly: Antiviral activity against Human cytomegalovirus Davis VR-807 infected in […] after 3 days by MTT assay. Type of series: functional, organism-based. To be noted: Human betaherpesvirus 5, Davis VR-807, 72 h.
A short description of series [1]: Cytotoxicity against human HEL299 cells after 3 days by MTT assay. The format is cell-based, HEL 299.
Series [2] in a line: Solubility of compound in double-deionized water after 3 days by LC-MS/MS analysis. The format is physicochemical.

In brackets after ≈: the same amount, converted by molar mass. A value given as a limit tells only on which side of the number the result lay.

The EC50 is the concentration that produces a half-maximal response. For orientation: CC50 means the concentration at which the toxic effect on the cells reaches its halfway point. As usually defined, the solubility is the concentration that dissolves in the medium under given conditions.

As for `Nc1nc2c(ncn2COCCO)c(=O)[nH]1` [ACYCLOVIR], the concentration giving a half-maximal response (EC50) in the series with Human alphaherpesvirus 1 was found to be 0.66 µM; with Human alphaherpesvirus 2, 1.02 µM; in the series with Human alphaherpesvirus 3, 6.4 µM; in the series on Human betaherpesvirus 5, 18.9 µM. For the same compound, the CC50 at 72 h in series [1] is > 100 µM. Also, the solubility at 72 h in series [2] amounted to 3920 µg/mL (≈ 17.4 mM).
On to `Nc1nc2c(ncn2C[Se]C(CO)CO)c(=O)[nH]1`, for which the EC50 in the series on Human alphaherpesvirus 1 is > 100 µM; in the series with Human alphaherpesvirus 2, > 100 µM; with Human alphaherpesvirus 3 it was > 100 µM; with Human betaherpesvirus 5, 53.1 µM. Besides, the cytotoxic concentration (CC50) at 72 h in series [1] was > 100 µM. Besides, the solubility at 72 h in series [2] came out at 2230 µg/mL (≈ 7.01 mM).
As for `Nc1nc2c(ncn2COC(CO)CO)c(=O)[nH]1` [GANCICLOVIR], the 50% effective concentration (EC50) was found to be 0.9 µM with Human alphaherpesvirus 1, 1.4 µM with Human alphaherpesvirus 2, 11.1 µM in the series with Human alphaherpesvirus 3 and 2.14 µM with Human betaherpesvirus 5. Also, the half-maximal cytotoxic concentration (CC50) at 72 h in series [1] was > 100 µM. The compound also gave a solubility at 72 h in series [2] of 4960 µg/mL (≈ 19.4 mM).
For `Nc1nc2c(ncn2C[Se]CCO)c(=O)[nH]1`, the concentration for a half-maximal effect (EC50) is 1.47 µM in the series with Human alphaherpesvirus 1, 6.34 µM with Human alphaherpesvirus 2, > 100 µM in the series with Human alphaherpesvirus 3 and > 100 µM in the series with Human betaherpesvirus 5. Besides, in series [1], the CC50 at 72 h was > 100 µM. Further, the solubility at 72 h in series [2] was 1060 µg/mL (≈ 3.68 mM).

These data come from ChEMBL document CHEMBL3632602, “Selenoacyclovir and Selenoganciclovir: Discovery of a New Template for Antiviral Agents” (J Med Chem, 2015).
